Assays:
[1] = test system: HO-1 mRNA; test: Kidney HO-1 mRNA (RT-PCR); format: in vivo, CD-1 mice
Method: (§1) Thirty-two mice were divided into 4 equal groups: (1) control mice; (2) mice treated with 1 mg of N-Mgb injection (as a bolus through the tail vein); (3) mice treated with […] of SnPP (via tail vein); and (4) mice treated with combined N-Mgb 1 SnPP. After either 4 hours (n=16) or 18 hours (n=16), the mice were deeply anesthetized with pentobarbital (50 mg/kg), the abdomen was opened through a midline abdominal incision, and the kidneys were removed. To determine potential effects on extrarenal organs, a liver lobe and the heart were also removed. The tissues were iced and then extracted for protein and RNA (RNeasy Plus Mini; Qiagen, Valencia, Calif.) and subjected to enzyme linked immunosorbent assay (ELISA) and reverse transcriptase polymerase chain reaction (RT-PCR) for HO-1, haptoglobin, and IL-10 protein and messenger RNAs (mRNAs). Zager et al. J Am Soc Nephrol 2014; 25:998-1012; Zager et al. Am J Physiol 2012; 303:F139-48. As an assessment of renal function, control mice and the 18 hour after N-Mgb+SnPP-treated mice had blood urea nitrogen (BUN) and plasma creatinine levels measured. Additionally, transverse 10% formalin fixed kidney sections ([…]) were cut and stained with hematoxylin and eosin (H&E) and periodic acid Schiff (PAS) to further assess potential injury.

[2] = test system: HO-1 protein; test: Kidney HO-1 protein (ELISA); format: in vivo, CD-1 mice
Method: as §1

[3] = test system: IL-10 protein; test: Kidney IL-10 protein (ELISA); format: in vivo, CD-1 mice
Method: as §1

[4] = test system: HO-1 protein; test: Liver HO-1 protein (ELISA); format: in vivo, CD-1 mice; parameters: unit not given beside the values
Method: as §1

[5] = test system: IL-10 protein; test: Liver IL-10 protein (ELISA); format: in vivo, CD-1 mice
Method: as §1

[6] = test system: HO-1 mRNA; test: Cardiac HO-1 mRNA (RT-PCR); format: in vivo, CD-1 mice
Method: as §1

[7] = test system: haptoglobin protein; test: Cardiac haptoglobin protein (ELISA); format: in vivo, CD-1 mice
Method: as §1

[8] = test system: IL-10 protein; test: Cardiac IL-10 protein (ELISA); format: in vivo, CD-1 mice
Method: as §1

[9] = test system: glycerol model of rhabdomyolysis-induced AKI; test: Glycerol model of rhabdomyolysis-induced AKI; format: in vivo, CD-1 mice; settings: IV pretreatment 18 h before glycerol; 18 hours after glycerol
Method: Assessments of cytoresistance. Glycerol model of rhabdomyolysis-induced AKI. Twenty mice were divided into 4 equal groups (controls, mice treated with N-Mgb, SnPP, and mice treated with N-Mgb+SnPP tail vein injections) as described previously. 18 hours later, the mice were briefly anesthetized with isoflurane and immediately injected with 9 mL/kg of 50% glycerol, administered in equally divided doses into each hind limb. At 18 hours after glycerol injection, the mice were anesthetized with pentobarbital, the abdomen was opened, a blood sample for BUN and creatinine assessments was obtained from the vena cava, and the kidneys were resected. The control post-glycerol group and the N-Mgb+SnPP-pretreated glycerol group had kidney sections stained with H&E.
To assess whether the previously determined plasma and kidney HO-1 and haptoglobin levels correlated with degrees of cytoresistance, additional mice were injected with 0, 2.5, or 5 mg of N-Mgb […] of SnPP (n=3 mice per group). Eighteen hours later, all mice were subjected to the glycerol AKI model as described previously. Severities of AKI were determined 18 hours after glycerol injection by BUN and plasma creatinine analyses.
Calculations and statistics. All values are given as the mean […] standard error of the mean. Statistical comparisons were made by unpaired Student's t test. […]

[10] = test system: maleate model of AKI; test: Maleate model of AKI (800 mg/Kg), FeS/SnPP and FeS/B12; format: in vivo, CD-1 mice; settings: IV 18 hrs before 800 mg/Kg maleate; 18 hrs post maleate; 1 mg FeS, 1 μmole SnPP or B12
Description: Effects of Fe sucrose (FeS)/tin protoporphyrin (SnPP) on AKI severity. Maleate model of AKI. When injected into rodents, maleate undergoes relatively selective proximal tubule cell uptake via organic anion transporters. Once intracellular accumulation occurs, maleate is a preferred substrate for succinyl-CoA:3-oxoacid CoA transferase. […] Ample levels of CoA are essential for fatty acid “activation”, allowing for their subsequent metabolism through the Krebs cycle, yielding ATP. In the absence of this process, proximal tubule ATP depletion and cell injury result. Additionally, maleate conjugates the sulfhydryl group of glutathione (GSH), culminating in GSH depletion and potential oxidant tubular stress.
The following experiment tested whether FeS, SnPP or combined FeS+SnPP can mitigate this form of acute kidney injury (AKI). Twenty seven mice were subjected to 200 μL IV tail injections of one of the following: 1) vehicle (phosphate buffered saline, PBS; n, 10); 2) 1 mg FeS (American Regent (Shirley, N.Y.; n, 3); 3) 1 μmole SnPP (Frontier Scientific, Logan, Utah; n 7), or FeS+SnPP, n, 7). […] The severity of kidney injury was assessed by determining plasma blood urea nitrogen (BUN) and plasma creatinine (PCr) concentrations.
Maleate model of AKI. […] The severity of AKI was determined 18 hrs post maleate injection by terminal BUN and PCr assessments.

[11] = test system: ferritin heavy chain; test: Kidney ferritin heavy chain expression (Western blotting); format: in vivo, mice; settings: 18 hrs following 1 umole SnPP, 1 mg FeS or combined
Method: FIG. 32. Ferritin heavy chain expression (as determined by Western blotting) in kidneys 18 hrs following 1 umole tin protoporphyrin (SnPP), 1 mg Fe sucrose (FeS) or combined SnPP+FeS treatment.

[12] = Berglund 1988; Kappas 1988; Reddy 2003; cited from earlier work
[13] = 4 h after IV injection, N-Mgb 1 mg, SnPP 1 mmol [sic]

C=Cc1c2[n-]c(c1C)/C=c1\[n-]/c(c(C)c1C=C)=C\c1[n-]c(c(CCC(=O)O)c1C)/C=c1\[n-]c(c(C)c1CCC(=O)O)=C2.[Sn+4] [SnPP, tin protoporphyrin]
Kidney mRNA HO-1 [1, 13]: 4.38 ± 0.28
Renal HO-1 mRNA increase, in words ([1]; 4 hour, agent alone): only modest increases
Kidney mRNA cortex HO-1 ([1]; 18 h after IV injection): 0.63 ± 0.06
Renal HO-1 protein increase, in words ([2]; 18-hour time point, agent alone): only relatively small HO-1 protein increases
Kidney HO-1 protein [2, 13]: 22.9 ± 2.6
Kidney protein HO-1 ([2]; 18 h after IV injection): 18 ± 2
Kidney IL-10 protein [3, 13]: 550 ± 86
Kidney protein IL-10 ([3]; 18 h after IV injection): 454 ± 51
Renal IL-10 protein increase, in words ([3]; 18 hours, agent alone): absence of IL-10 protein increases
Liver protein HO-1 ([4]; 4 h after IV injection): 7.4 ± 0.7
Liver protein HO-1 ([4]; 18 h after IV injection): 18 ± 2.5
Liver protein IL-10 ([5]; 4 h after IV injection): 485 ± 47
Liver protein IL-10 ([5]; 18 h after IV injection): 8198 ± 725
Cardiac mRNA HO-1 ([6]; 4 h after IV injection): 0.14 ± 0.01
Cardiac mRNA HO-1 ([6]; 18 h after IV injection): 0.09 ± 0.03
Cardiac protein Haptoglobin ([7]; 4 h after IV injection): 19.1 ± 2.1
Cardiac protein Haptoglobin ([7]; 18 h after IV injection): 96.1 ± 36.2
Cardiac Protein IL-10 ([8]; 4 h after IV injection): 15.8 ± 10^
Cardiac protein IL-10 (L-10 [sic]) ([8]; 18 h after IV injection): 23.4 ± 14^
Protection against glycerol-induced AKI judged by BUN/creatinine levels [9]: virtually no effect
Severity of maleate-induced AKI (BUN/PCr), in words [10]: Neither SnPP alone nor FeS alone significantly altered the severity of renal injury
Ferritin heavy chain protein levels in kidney [11]: weak effect
Tolerability in humans [12]: well tolerated in humans
